Reference: patent US20220175768A1, “FGFR TYROSINE KINASE INHIBITORS FOR THE TREATMENT OF UROTHELIAL CARCINOMA” (Janssen Pharmaceutica NV, priority 2019, published 2022)

Conditions: 6 mg continuous, regimen 2 (n = 78)

In the case of `COc1cc(OC)cc(N(CCNC(C)C)c2ccc3ncc(-c4cnn(C)c4)nc3c2)c1` [erdafitinib, N-(3,5-dimethoxy-phenyl)-N′-(1-methylethyl)-N-[3-(1-methyl-1H-pyrazol-4-yl)quinoxalin-6-yl]ethane-1,2-diamine], the “Patients with Abdominal pain, Any grade” value is reported as 14 (18) no. (%), the “Patients with Abdominal pain, Grade 1” value is reported as 7 (9) no. (%) and the “Patients with Abdominal pain, Grade 2” value is reported as 5 (6) no. (%). The “Patients with Abdominal pain, Grade ≥3” value was 2 (3) no. (%), the “Patients with Alanine aminotransferase increased, Any grade” value was 9 (12) no. (%) and the “Patients with Alanine aminotransferase increased, Grade 1” value was 7 (9) no. (%). The “Patients with Alanine aminotransferase increased, Grade 2” value was 2 (3) no. (%), the “Patients with Alanine aminotransferase increased, Grade ≥3” value was 0 no. (%) and the “Patients with Alopecia, Any grade” value was 10 (13) no. (%). The “Patients with Alopecia, Grade 1” value was 9 (12) no. (%), the “Patients with Alopecia, Grade 2” value was 1 (1) no. (%) and the “Patients with Alopecia, Grade ≥3” value was 0 no. (%). The “Patients with Anemia, Any grade” value was 13 (17) no. (%), the “Patients with Anemia, Grade 1” value was 0 no. (%) and the “Patients with Anemia, Grade 2” value was 8 (10) no. (%). The “Patients with Anemia, Grade ≥3” value was 5 (6) no. (%), the “Patients with Arthralgia, Any grade” value was 8 (10) no. (%) and the “Patients with Arthralgia, Grade 1” value was 5 (6) no. (%). For the same molecule, the “Patients with Arthralgia, Grade 2” value was 2 (3) no. (%), the “Patients with Arthralgia, Grade ≥3” value was 1 (1) no. (%) and the “Patients with Aspartate aminotransferase increased, Any grade” value was 9 (12) no. (%). For the same molecule, the “Patients with Aspartate aminotransferase increased, Grade 1” value was 7 (9) no. (%), the “Patients with Aspartate aminotransferase increased, Grade 2” value was 2 (3) no. (%) and the “Patients with Aspartate aminotransferase increased, Grade ≥3” value was 0 no. (%). The “Patients with Asthenia, Any grade” value was 18 (23) no. (%), the “Patients with Asthenia, Grade 1” value was 5 (6) no. (%) and the “Patients with Asthenia, Grade 2” value was 4 (5) no. (%). For the same molecule, the “Patients with Asthenia, Grade ≥3” value was 9 (12) no. (%), the “Patients with Back pain, Any grade” value was 11 (14) no. (%) and the “Patients with Back pain, Grade 1” value was 6 (8) no. (%). The “Patients with Back pain, Grade 2” value was 3 (4) no. (%), the “Patients with Back pain, Grade ≥3” value was 2 (3) no. (%) and the “Patients with Blood creatinine increased, Any grade” value was 6 (8) no. (%). The “Patients with Blood creatinine increased, Grade 1” value was 3 (4) no. (%), the “Patients with Blood creatinine increased, Grade 2” value was 3 (4) no. (%) and the “Patients with Blood creatinine increased, Grade ≥3” value was 0 no. (%). The “Patients with Conjunctivitis, Any grade” value was 7 (9) no. (%), the “Patients with Conjunctivitis, Grade 1” value was 4 (5) no. (%) and the “Patients with Conjunctivitis, Grade 2” value was 2 (3) no. (%). The “Patients with Conjunctivitis, Grade ≥3” value was 1 (1) no. (%), the “Patients with Constipation, Any grade” value was 20 (26) no. (%) and the “Patients with Constipation, Grade 1” value was 10 (13) no. (%). For the same molecule, the “Patients with Constipation, Grade 2” value was 10 (13) no. (%), the “Patients with Constipation, Grade ≥3” value was 0 no. (%) and the “Patients with Decreased appetite, Any grade” value was 29 (37) no. (%). For the same molecule, the “Patients with Decreased appetite, Grade 1” value was 12 (15) no. (%), the “Patients with Decreased appetite, Grade 2” value was 13 (17) no. (%) and the “Patients with Decreased appetite, Grade ≥3” value was 4 (5) no. (%). For the same molecule, the “Patients with Diarrhea, Any grade” value was 39 (50) no. (%), the “Patients with Diarrhea, Grade 1” value was 24 (31) no. (%) and the “Patients with Diarrhea, Grade 2” value was 15 (19) no. (%). The “Patients with Diarrhea, Grade ≥3” value was 0 no. (%), the “Patients with Dry eye, Any grade” value was 6 (8) no. (%) and the “Patients with Dry eye, Grade 1” value was 3 (4) no. (%). The “Patients with Dry eye, Grade 2” value was 2 (3) no. (%), the “Patients with Dry eye, Grade ≥3” value was 1 (1) no. (%) and the “Patients with Dry mouth, Any grade” value was 31 (40) no. (%). The “Patients with Dry mouth, Grade 1” value was 23 (30) no. (%), the “Patients with Dry mouth, Grade 2” value was 6 (8) no. (%) and the “Patients with Dry mouth, Grade ≥3” value was 2 (3) no. (%). The “Patients with Dry skin, Any grade” value was 18 (23) no. (%), the “Patients with Dry skin, Grade 1” value was 10 (13) no. (%) and the “Patients with Dry skin, Grade 2” value was 8 (10) no. (%). The “Patients with Dry skin, Grade ≥3” value was 0 no. (%), the “Patients with Dysgeusia, Any grade” value was 10 (13) no. (%) and the “Patients with Dysgeusia, Grade 1” value was 6 (8) no. (%). For the same molecule, the “Patients with Dysgeusia, Grade 2” value was 4 (5) no. (%), the “Patients with Dysgeusia, Grade ≥3” value was 0 no. (%) and the “Patients with Dyspepsia, Any grade” value was 9 (12) no. (%). The “Patients with Dyspepsia, Grade 1” value was 6 (8) no. (%), the “Patients with Dyspepsia, Grade 2” value was 3 (4) no. (%) and the “Patients with Dyspepsia, Grade ≥3” value was 0 no. (%). For the same molecule, the “Patients with Dyspnea, Any grade” value was 6 (7) no. (%), the “Patients with Dyspnea, Grade 1” value was 1 (1) no. (%) and the “Patients with Dyspnea, Grade 2” value was 3 (4) no. (%). For the same molecule, the “Patients with Dyspnea, Grade ≥3” value was 2 (3) no. (%), the “Patients with Fatigue, Any grade” value was 20 (26) no. (%) and the “Patients with Fatigue, Grade 1” value was 8 (10) no. (%). For the same molecule, the “Patients with Fatigue, Grade 2” value was 8 (10) no. (%), the “Patients with Fatigue, Grade ≥3” value was 4 (5) no. (%) and the “Patients with Hand-foot syndrome, Any grade” value was 13 (17) no. (%). The “Patients with Hand-foot syndrome, Grade 1” value was 4 (5) no. (%), the “Patients with Hand-foot syndrome, Grade 2” value was 9 (12) no. (%) and the “Patients with Hand-foot syndrome, Grade ≥3” value was 0 no. (%). The “Patients with Hematuria, Any grade” value was 6 (8) no. (%), the “Patients with Hematuria, Grade 1” value was 5 (6) no. (%) and the “Patients with Hematuria, Grade 2” value was 0 no. (%). For the same molecule, the “Patients with Hematuria, Grade ≥3” value was 1 (1) no. (%), the “Patients with Hyperphosphatemia, Any grade” value was 52 (67) no. (%) and the “Patients with Hyperphosphatemia, Grade 1” value was 44 (56) no. (%). For the same molecule, the “Patients with Hyperphosphatemia, Grade 2” value was 8 (10) no. (%), the “Patients with Hyperphosphatemia, Grade ≥3” value was 0 no. (%) and the “Patients with Hypomagnesemia, Any grade” value was 6 (8) no. (%). For the same molecule, the “Patients with Hypomagnesemia, Grade 1” value was 6 (8) no. (%), the “Patients with Hypomagnesemia, Grade 2” value was 0 no. (%) and the “Patients with Hypomagnesemia, Grade ≥3” value was 0 no. (%). For the same molecule, the “Patients with Hyponatremia, Any grade” value was 7 (9) no. (%), the “Patients with Hyponatremia, Grade 1” value was 2 (3) no. (%) and the “Patients with Hyponatremia, Grade 2” value was 0 no. (%). The “Patients with Hyponatremia, Grade ≥3” value was 5 (6) no. (%), the “Patients with Insomnia, Any grade” value was 8 (10) no. (%) and the “Patients with Insomnia, Grade 1” value was 4 (5) no. (%). The “Patients with Insomnia, Grade 2” value was 2 (3) no. (%), the “Patients with Insomnia, Grade ≥3” value was 2 (3) no. (%) and the “Patients with Lacrimation increased, Any grade” value was 13 (17) no. (%). The “Patients with Lacrimation increased, Grade 1” value was 10 (13) no. (%), the “Patients with Lacrimation increased, Grade 2” value was 3 (4) no. (%) and the “Patients with Lacrimation increased, Grade ≥3” value was 0 no. (%). The “Patients with Nail dystrophy, Any grade” value was 7 (9) no. (%), the “Patients with Nail dystrophy, Grade 1” value was 6 (8) no. (%) and the “Patients with Nail dystrophy, Grade 2” value was 1 (1) no. (%). The “Patients with Nail dystrophy, Grade ≥3” value was 0 no. (%), the “Patients with Nausea, Any grade” value was 16 (21) no. (%) and the “Patients with Nausea, Grade 1” value was 11 (14) no. (%). For the same molecule, the “Patients with Nausea, Grade 2” value was 4 (5) no. (%), the “Patients with Nausea, Grade ≥3” value was 1 (1) no. (%) and the “Patients with Onycholysis, Any grade” value was 13 (17) no. (%). The “Patients with Onycholysis, Grade 1” value was 2 (3) no. (%), the “Patients with Onycholysis, Grade 2” value was 6 (8) no. (%) and the “Patients with Onycholysis, Grade ≥3” value was 5 (6) no. (%). For the same molecule, the “Patients with Onychomadesis, Any grade” value was 8 (10) no. (%), the “Patients with Onychomadesis, Grade 1” value was 2 (3) no. (%) and the “Patients with Onychomadesis, Grade 2” value was 6 (8) no. (%). The “Patients with Onychomadesis, Grade ≥3” value was 0 no. (%), the “Patients with Oropharyngeal pain, Any grade” value was 8 (10) no. (%) and the “Patients with Oropharyngeal pain, Grade 1” value was 5 (6) no. (%). For the same molecule, the “Patients with Oropharyngeal pain, Grade 2” value was 3 (4) no. (%), the “Patients with Oropharyngeal pain, Grade ≥3” value was 0 no. (%) and the “Patients with Pain in extremity, Any grade” value was 9 (12) no. (%). The “Patients with Pain in extremity, Grade 1” value was 2 (3) no. (%), the “Patients with Pain in extremity, Grade 2” value was 6 (8) no. (%) and the “Patients with Pain in extremity, Grade ≥3” value was 1 (1) no. (%). For the same molecule, the “Patients with Paronychia, Any grade” value was 12 (15) no. (%), the “Patients with Paronychia, Grade 1” value was 2 (3) no. (%) and the “Patients with Paronychia, Grade 2” value was 10 (13) no. (%). For the same molecule, the “Patients with Paronychia, Grade ≥3” value was 0 no. (%), the “Patients with Peripheral edema, Any grade” value was 6 (8) no. (%) and the “Patients with Peripheral edema, Grade 1” value was 2 (3) no. (%). The “Patients with Peripheral edema, Grade 2” value was 3 (4) no. (%), the “Patients with Peripheral edema, Grade ≥3” value was 1 (1) no. (%) and the “Patients with Pyrexia, Any grade” value was 14 (18) no. (%). The “Patients with Pyrexia, Grade 1” value was 8 (10) no. (%), the “Patients with Pyrexia, Grade 2” value was 3 (4) no. (%) and the “Patients with Pyrexia, Grade ≥3” value was 3 (4) no. (%). For the same molecule, the “Patients with Retinal detachment, Any grade” value was 8 (10) no. (%), the “Patients with Retinal detachment, Grade 1” value was 5 (6) no. (%) and the “Patients with Retinal detachment, Grade 2” value was 3 (4) no. (%). For the same molecule, the “Patients with Retinal detachment, Grade ≥3” value was 0 no. (%), the “Patients with Stomatitis, Any grade” value was 33 (42) no. (%) and the “Patients with Stomatitis, Grade 1” value was 13 (17) no. (%). For the same molecule, the “Patients with Stomatitis, Grade 2” value was 13 (17) no. (%), the “Patients with Stomatitis, Grade ≥3” value was 7 (9) no. (%) and the “Patients with Urinary tract infection, Any grade” value was 13 (17) no. (%). The “Patients with Urinary tract infection, Grade 1” value was 0 no. (%), the “Patients with Urinary tract infection, Grade 2” value was 9 (12) no. (%) and the “Patients with Urinary tract infection, Grade ≥3” value was 4 (5) no. (%). For the same molecule, the “Patients with Vision blurred, Any grade” value was 5 (6) no. (%), the “Patients with Vision blurred, Grade 1” value was 3 (4) no. (%) and the “Patients with Vision blurred, Grade 2” value was 1 (1) no. (%). The “Patients with Vision blurred, Grade ≥3” value was 1 (1) no. (%), the “Patients with Vomiting, Any grade” value was 11 (14) no. (%) and the “Patients with Vomiting, Grade 1” value was 9 (12) no. (%). The “Patients with Vomiting, Grade 2” value was 2 (3) no. (%), the “Patients with Vomiting, Grade ≥3” value was 0 no. (%) and the “Patients with Weight decreased, Any grade” value was 8 (10) no. (%). The “Patients with Weight decreased, Grade 1” value was 4 (5) no. (%), the “Patients with Weight decreased, Grade 2” value was 2 (3) no. (%) and the “Patients with Weight decreased, Grade ≥3” value was 2 (3) no. (%). The “Treatment-related adverse event: Alopecia, Any grade” value was 8 (10) no. (%), the “Treatment-related adverse event: Alopecia, Grade 1” value was 8 (10) no. (%) and the “Treatment-related adverse event: Alopecia, Grade 2” value was 0 no. (%). For the same molecule, the “Treatment-related adverse event: Alopecia, Grade ≥3” value was 0 no. (%).
